In ChEMBL document CHEMBL1201862, “PubChem BioAssay data set” (2004):
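Results reflect a 48-hour exposure of cells in 96-well plates to compound at five concentrations. Abbreviation: GI50, concentration required for 50% inhibition of growth.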 Calls of active or inactive are those of the source. Rule as the data show it: active = GI50 up to about 1.1 µM and inactive = higher.

Tests used:
Experiment in all cases: NCI tumour cell line growth inhibition, 48 h
HOP-62 = test system: HOP-62
U-251 = test system: U-251
COLO 205 = test system: COLO 205
RPMI-8226 = test system: RPMI-8226
ACHN = test system: ACHN
A549 = test system: A549
OVCAR-3 = test system: OVCAR-3
NCI-H226 = test system: NCI-H226
MOLT-4 = test system: MOLT-4
SR = test system: SR
IGROV-1 = test system: IGROV-1
SK-MEL-2 = test system: SK-MEL-2
SF-539 = test system: SF-539
OVCAR-4 = test system: OVCAR-4
UO-31 = test system: UO-31
DLD-1 = test system: DLD-1
HCT-15 = test system: HCT-15
HT-29 = test system: HT-29
HCC 2998 = test system: HCC 2998
MDA-N = test system: MDA-N

For `CC(=O)OCC1OC(Nc2nc(O)n(C)c(=O)c2-c2csc(N)n2)C(OC(C)=O)C(OC(C)=O)C1OC(C)=O` (stereo not given), the GI50 (HOP-62) was > 100 µM (inactive), the GI50 (U-251) was > 100 µM (inactive) and the GI50 (COLO 205) was > 100 µM (inactive). The GI50 (RPMI-8226) was > 100 µM (inactive), the GI50 (ACHN) was > 100 µM (inactive) and the GI50 (A549) was > 100 µM (inactive). The GI50 (OVCAR-3) was > 100 µM (inactive), the GI50 (NCI-H226) was > 100 µM (inactive) and the GI50 (MOLT-4) was > 100 µM (inactive). The GI50 (SR) was > 100 µM (inactive), the GI50 (IGROV-1) was > 100 µM (inactive) and the GI50 (SK-MEL-2) was > 100 µM (inactive). The GI50 (SF-539) was > 100 µM (inactive), the GI50 (OVCAR-4) was > 100 µM (inactive) and the GI50 (UO-31) was > 100 µM (inactive). For the same compound, the GI50 (DLD-1) was > 100 µM (inactive), the GI50 (HCT-15) was greater than 100 µM and the GI50 (HT-29) was > 100 µM (inactive).
With `O=c1c2ccccc2sc2nc(O)nn12` the GI50 (HOP-62) was > 100 µM (inactive), the GI50 (U-251) was > 100 µM (inactive) and the GI50 (COLO 205) was > 100 µM (inactive). For the same compound, the GI50 (HCC 2998) was > 100 µM (inactive), the GI50 (RPMI-8226) was > 100 µM (inactive) and the GI50 (ACHN) was > 100 µM (inactive). The GI50 (A549) was > 100 µM (inactive), the GI50 (OVCAR-3) was > 100 µM (inactive) and the GI50 (NCI-H226) was > 100 µM (inactive). For the same compound, the GI50 (MOLT-4) was > 100 µM (inactive), the GI50 (SR) was > 100 µM (inactive) and the GI50 (IGROV-1) was > 100 µM (inactive). The GI50 (SK-MEL-2) was > 100 µM (inactive), the GI50 (SF-539) was > 100 µM (inactive) and the GI50 (OVCAR-4) was > 100 µM (inactive). For the same compound, the GI50 (UO-31) was > 100 µM (inactive), the GI50 (DLD-1) was > 100 µM (inactive) and the GI50 (HCT-15) was greater than 100 µM. For the same compound, the GI50 (HT-29) was > 100 µM (inactive).
`C/C(=C1/N=C(c2cc([N+](=O)[O-])ccc2Cl)N(C2=CC=C(Cl)CC2)C1=O)c1cc2ccccc2oc1=O` was tested, and the GI50 (HOP-62) was 31.5 µM (inactive), the GI50 (U-251) was 49.2 µM (inactive) and the GI50 (COLO 205) was 47.6 µM (inactive). The GI50 (HCC 2998) was 24.7 µM (inactive), the GI50 (RPMI-8226) was 32.4 µM (inactive) and the GI50 (ACHN) was 3.93 µM (inactive). The GI50 (A549) was 27.9 µM (inactive), the GI50 (OVCAR-3) was 36.8 µM (inactive) and the GI50 (NCI-H226) was 29 µM (inactive). The GI50 (MOLT-4) was 54.6 µM (inactive), the GI50 (SR) was 28.6 µM (inactive) and the GI50 (IGROV-1) was 27.6 µM (inactive). For the same compound, the GI50 (SF-539) was 10.7 µM (inactive), the GI50 (OVCAR-4) was 24.4 µM (inactive) and the GI50 (UO-31) was 21.8 µM (inactive). For the same compound, the GI50 (DLD-1) was 20 µM (inactive) and the GI50 (HT-29) was 63.4 µM (inactive).
In the case of `COc1nc2[nH]ccc2c(=O)n1C`, the GI50 (U-251) is reported as > 100 µM (inactive), the GI50 (COLO 205) is reported as > 100 µM (inactive) and the GI50 (RPMI-8226) is reported as > 100 µM (inactive). For the same compound, the GI50 (ACHN) was > 100 µM (inactive), the GI50 (A549) was > 100 µM (inactive) and the GI50 (MOLT-4) was > 100 µM (inactive). For the same compound, the GI50 (SR) was > 100 µM (inactive), the GI50 (IGROV-1) was > 100 µM (inactive) and the GI50 (SK-MEL-2) was > 100 µM (inactive). The GI50 (SF-539) was > 100 µM (inactive), the GI50 (OVCAR-4) was 20.5 µM (inactive) and the GI50 (DLD-1) was > 100 µM (inactive). For the same compound, the GI50 (HCT-15) was greater than 100 µM and the GI50 (HT-29) was > 100 µM (inactive).
For `COc1cccc2c1C(=O)c1c(O)c3c(c(O)c1C2=O)C[C@@](O)(C(=O)CO)CC3OC1CC(NCCCCC(OC(C)=O)OC(C)=O)C(O)C(C)O1` (stereo not given in full), the GI50 (HOP-62) was 0.0021 µM (active), the GI50 (U-251) was 0.00173 µM (active) and the GI50 (HCC 2998) was 0.00223 µM (active). The GI50 (RPMI-8226) was 0.00261 µM (active), the GI50 (ACHN) was 0.00243 µM (active) and the GI50 (A549) was 0.00243 µM (active). For the same compound, the GI50 (OVCAR-3) was 0.00349 µM (active), the GI50 (NCI-H226) was 0.00227 µM (active) and the GI50 (MOLT-4) was 0.00235 µM (active). The GI50 (SR) was 0.000337 µM (active), the GI50 (IGROV-1) was 0.0046 µM (active) and the GI50 (SK-MEL-2) was 0.00212 µM (active). For the same compound, the GI50 (SF-539) was 0.00212 µM (active), the GI50 (OVCAR-4) was 0.00157 µM (active) and the GI50 (UO-31) was 0.00192 µM (active). The GI50 (DLD-1) was 0.00342 µM (active), the GI50 (HCT-15) was 0.00246 µM and the GI50 (HT-29) was 0.00312 µM (active).
`NC(CO)c1ccccc1` (stereo not given) was tested, and the GI50 (HOP-62) was > 100 µM (inactive), the GI50 (U-251) was > 100 µM (inactive) and the GI50 (HCC 2998) was > 100 µM (inactive). The GI50 (ACHN) was > 100 µM (inactive), the GI50 (A549) was > 100 µM (inactive) and the GI50 (OVCAR-3) was > 100 µM (inactive). For the same compound, the GI50 (NCI-H226) was > 100 µM (inactive), the GI50 (MOLT-4) was > 100 µM (inactive) and the GI50 (SR) was > 100 µM (inactive). The GI50 (IGROV-1) was > 100 µM (inactive), the GI50 (SK-MEL-2) was > 100 µM (inactive) and the GI50 (SF-539) was > 100 µM (inactive). For the same compound, the GI50 (OVCAR-4) was > 100 µM (inactive), the GI50 (UO-31) was > 100 µM (inactive) and the GI50 (DLD-1) was > 100 µM (inactive). For the same compound, the GI50 (HCT-15) was greater than 100 µM and the GI50 (HT-29) was > 100 µM (inactive).
For `COc1ccc2[nH]c3c(C)c4cc[n+](C)cc4c(C)c3c2c1`, the GI50 (HOP-62) was 0.621 µM (active), the GI50 (U-251) was 0.191 µM (active) and the GI50 (HCC 2998) was 3.15 µM (inactive). The GI50 (ACHN) was 14 µM (inactive), the GI50 (OVCAR-3) was 3.09 µM (inactive) and the GI50 (NCI-H226) was 0.301 µM (active). For the same compound, the GI50 (IGROV-1) was 2.19 µM (inactive), the GI50 (SK-MEL-2) was 3.85 µM (inactive) and the GI50 (SF-539) was 0.345 µM (active). For the same compound, the GI50 (OVCAR-4) was 3.37 µM (inactive), the GI50 (UO-31) was 21.7 µM (inactive) and the GI50 (DLD-1) was 1.87 µM (inactive). For the same compound, the GI50 (HT-29) was 4.83 µM (inactive).
In the case of `CC(=O)Nc1c2sscc-2n(C)c1=O` [THIOLUTIN], the GI50 (HOP-62) is reported as 1.67 µM (inactive), the GI50 (U-251) is reported as 1.12 µM (active) and the GI50 (COLO 205) is reported as 0.596 µM (active). For the same compound, the GI50 (HCC 2998) was 0.587 µM (active), the GI50 (RPMI-8226) was 0.575 µM (active) and the GI50 (ACHN) was 0.984 µM (active). The GI50 (A549) was 1.55 µM (inactive), the GI50 (OVCAR-3) was 1.82 µM (inactive) and the GI50 (NCI-H226) was 1.89 µM (inactive). The GI50 (MOLT-4) was 0.152 µM (active), the GI50 (SR) was 0.235 µM (active) and the GI50 (IGROV-1) was 1.86 µM (inactive). For the same compound, the GI50 (SK-MEL-2) was 1.88 µM (inactive), the GI50 (SF-539) was 1.86 µM (inactive) and the GI50 (OVCAR-4) was 1.56 µM (inactive). For the same compound, the GI50 (UO-31) was 2.1 µM (inactive), the GI50 (MDA-N) was 1.56 µM (inactive) and the GI50 (HCT-15) was 1.32 µM. The GI50 (HT-29) was 0.272 µM (active).
